In the test the target is T1, human GLUT1 (Homo sapiens, UniProt P11166).
T1 construct: expressed in transfected cells
T1 sequence (P11166 1-492): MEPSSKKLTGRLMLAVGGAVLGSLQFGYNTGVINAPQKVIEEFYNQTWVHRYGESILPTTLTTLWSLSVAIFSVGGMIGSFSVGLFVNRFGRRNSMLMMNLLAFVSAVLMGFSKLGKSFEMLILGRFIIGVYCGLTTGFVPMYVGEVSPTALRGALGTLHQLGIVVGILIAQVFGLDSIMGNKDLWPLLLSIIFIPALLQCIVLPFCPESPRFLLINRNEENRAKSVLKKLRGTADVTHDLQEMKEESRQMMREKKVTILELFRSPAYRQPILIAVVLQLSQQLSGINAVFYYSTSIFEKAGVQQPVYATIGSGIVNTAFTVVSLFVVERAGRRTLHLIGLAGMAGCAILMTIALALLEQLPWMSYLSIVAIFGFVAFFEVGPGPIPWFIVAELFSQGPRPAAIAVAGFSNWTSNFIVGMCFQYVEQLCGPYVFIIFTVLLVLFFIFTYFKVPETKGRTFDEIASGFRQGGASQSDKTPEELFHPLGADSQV
The test is described as follows: [3H]-deoxy-D-glucose uptake assay, GLUT1. The note with it: [3H]-deoxy-D-glucose uptake in HEK293 cells stably expressing human GLUT1. The test is classed as cell-based. As for the experimental part: HEK293 cells were engineered to stably express either human GLUT1, GLUT2, GLUt3 or GLUT4 by transfection with the pReceiver-Lv105 plasmid, containing either hGLUT1, hGLUT2, hGLUT3, or hGLUT4 gene constructs with lipofectamine 2000, hGLUT1- hGLUT2- hGLUT3- or hGLUT4-overexpressing polyclonal populations were isolated under purinomycin selective pressure (1 μg/ml) and maintained in Dulbecco's modified Eagle's medium supplemented with 1 μg/ml purinomycin+10% foetal bovine serum (FBS).
60,000 cells per well were seeded overnight into poly-D-lysine coasted 96-well plates. […] 90 μl of test compounds were added in glucose-free uptake buffer and cells were incubated at 37° C. for 30 min.
Cells were then washed twice with ice-cold PBS and 100 μl of Microscint-20 was added per well. Glucose uptake was quantified with a scintillation counter. The half maximal inhibitory concentration (IC50) (a measure of the effectiveness of the test compound in inhibiting glucose uptake) was determined.

For the compound `O=C(c1ccccn1)N1CCN(Cc2c(-c3ccc(Cl)cc3)nc3ccc(-c4ccccc4)cn23)CC1` [Compound 144], the “GLUT1 pIC50” value is given as “+++ (pIC50 ≧ 6.00)”.
Consider `O=C(c1cccnc1)N1CCN(Cc2c(-c3ccc(Cl)cc3)nc3ccc(-c4ccccc4)cn23)CC1` [Compound 145], for which the “GLUT1 pIC50” value is “+++ (pIC50 ≧ 6.00)”.
As for `O=C(c1ccncc1)N1CCN(Cc2c(-c3ccc(Cl)cc3)nc3ccc(-c4ccccc4)cn23)CC1` [Compound 152], the “GLUT1 pIC50” value was “+++ (pIC50 ≧ 6.00)”.
Under `FC(F)(F)Oc1ccccc1-c1ccc2nc(-c3ccc(Cl)cc3)c(CN3CCOCC3)n2c1` [Compound 153] stands “+− (pIC50 < 4.00)”.
As for `COc1ccc2nc(-c3ccc(Cl)cc3)c(CN3CCOCC3)n2c1` [Compound 154], the entry is “+ (pIC50 4.00-4.99)”; as for `Cc1ccc(-c2nc3ccc(-c4ccccc4)cn3c2CN2CCOCC2)cc1` [Compound 157], “++ (pIC50 5.00-5.99)”; as for `Clc1ccc(-c2nc3ccc(Oc4ccccc4)cn3c2CN2CCOCC2)cc1` [Compound 158], “+ (pIC50 4.00-4.99)”.
As for `O=C(c1cscn1)N1CCN(Cc2c(-c3ccc(Cl)cc3)nc3ccc(-c4ccccc4)cn23)CC1` [Compound 159], the entry is “+++ (pIC50 ≧ 6.00)”; as for `O=C1CCCN1c1ccc2nc(-c3ccc(Cl)cc3)c(CN3CCOCC3)n2c1` [Compound 162], “+ (pIC50 4.00-4.99)”.
Consider `CCOC(=O)c1ccc2nc(-c3ccc(Cl)cc3)c(CN3CCOCC3)n2c1` [Compound 163], for which the “GLUT1 pIC50” value was “+ (pIC50 4.00-4.99)”.
For `O=C(c1ccc(F)cc1)N1CCN(Cc2c(-c3ccc(Cl)cc3)nc3cnc(-c4ccccc4)cn23)CC1` [Compound 168], the “GLUT1 pIC50” value is on record as “+++ (pIC50 ≧ 6.00)”.
Under `O=C(c1cccc(F)c1)N1CCCN(Cc2c(-c3ccc(Cl)cc3)nc3ccc(-c4ccccc4)cn23)CC1` [Compound 169] stands “++ (pIC50 5.00-5.99)”; under `Clc1ccc(-c2nc3ccc(-c4ncon4)cn3c2CN2CCOCC2)cc1` [Compound 172], “++ (pIC50 5.00-5.99)”.
On to `c1ccc(-c2ccc3nc(C4CCCCC4)c(CN4CCOCC4)n3c2)cc1` [Compound 173], for which the “GLUT1 pIC50” value was “++ (pIC50 5.00-5.99)”.
As for `NC(=O)CN1CCN(Cc2c(-c3ccc(Cl)cc3)nc3ccc(-c4ccccc4)cn23)CC1` [Compound 174], the entry is “++ (pIC50 5.00-5.99)”.
Under `Clc1ccc(-c2nc3ccc(-c4ccccc4)cn3c2CN2CCn3ncnc3C2)cc1` [Compound 175] stands “++ (pIC50 5.00-5.99)”; under `Cc1cc2nc(-c3ccc(Cl)cc3)c(CN3CCOCC3)n2cc1-c1ccccc1` [Compound 176], “++ (pIC50 5.00-5.99)”.
As for `Clc1ccc(-c2nc3ccc(C4=CCCC4)cn3c2CN2CCOCC2)cc1` [Compound 177], the “GLUT1 pIC50” value is listed as “+ (pIC50 4.00-4.99)”.
As for `O=C(c1cccc(F)c1)N1CCN(Cc2c(-c3ccc(Cl)cc3)nc3ccc(C4CC4)cn23)CC1` [Compound 178], the entry is “+++ (pIC50 ≧ 6.00)”.
Under `N#Cc1ccc2nc(-c3ccc(Cl)cc3)c(CN3CCOCC3)n2c1` [Compound 179] stands “+− (pIC50 < 4.00)”.
Turning to `Clc1ccc(-c2nc3ccc(-c4nnn[nH]4)cn3c2CN2CCOCC2)cc1` [Compound 180], the “GLUT1 pIC50” value is “+− (pIC50 < 4.00)”.
As for `O=C(c1cnccn1)N1CCN(Cc2c(-c3ccc(Cl)cc3)nc3ccc(-c4ccccc4)cn23)CC1` [Compound 181], the entry is “+++ (pIC50 ≧ 6.00)”; as for `O=C(O)C1CCN(Cc2c(-c3ccc(Cl)cc3)nc3ccc(-c4ccccc4)cn23)CC1` [Compound 182], “+− (pIC50 < 4.00)”.
As for `O=C(c1ccc(Cl)cc1)N1CCN(Cc2c(-c3ccc(Cl)cc3)nc3ccc(-c4ccccc4)cn23)CC1` [Compound 183], the “GLUT1 pIC50” value is “+++ (pIC50 ≧ 6.00)”.
As for `O=C(c1cncs1)N1CCN(Cc2c(-c3ccc(Cl)cc3)nc3ccc(-c4ccccc4)cn23)CC1` [Compound 184], the entry is “+++ (pIC50 ≧ 6.00)”; as for `O=C(c1cccc(Cl)c1)N1CCN(Cc2c(-c3ccc(Cl)cc3)nc3ccc(-c4ccccc4)cn23)CC1` [Compound 185], “++ (pIC50 5.00-5.99)”.
As for `CC(=O)N1CCN(Cc2c(-c3ccc(Cl)cc3)nc3cnc(-c4ccccc4)cn23)CC1` [Compound 186], the entry is “+++ (pIC50 ≧ 6.00)”; as for `Clc1ccc(-c2nc3ccc(-c4ccccc4)cn3c2CNC2CCOCC2)cc1` [Compound 188], “++ (pIC50 5.00-5.99)”; as for `COc1cccc(-c2nc3ccc(-c4ccccc4F)cn3c2CN2CCN(C(=O)C3CCC3)CC2)c1` [Compound 189], “+++ (pIC50 ≧ 6.00)”.
Regarding `COc1cccc(-c2nc3ccc(-c4ccccc4Cl)cn3c2CN2CCN(C(=O)C3CCC3)CC2)c1` [Compound 190], the “GLUT1 pIC50” value is given as “+++ (pIC50 ≧ 6.00)”.
Take `COc1cccc(-c2nc3ccc(-c4ccccc4C#N)cn3c2CN2CCN(C(=O)C3CCC3)CC2)c1` [Compound 191]: the “GLUT1 pIC50” value is listed as “+++ (pIC50 ≧ 6.00)”.
Under `COc1cccc(-c2nc3ccc(-c4ccccc4C(N)=O)cn3c2CN2CCN(C(=O)C3CCC3)CC2)c1` [Compound 192] stands “++ (pIC50 5.00-5.99)”; under `N#Cc1cccc(C(=O)N2CCN(Cc3c(-c4ccc(Cl)cc4)nc4ccc(-c5ccccc5)cn34)CC2)c1` [Compound 193], “+++ (pIC50 ≧ 6.00)”.
On to `CC(=O)N1CCN(Cc2c(-c3ccc(Cl)cc3)nc3ccc(C4CC4)cn23)CC1` [Compound 194], for which the “GLUT1 pIC50” value is recorded as “++ (pIC50 5.00-5.99)”.
Take `CCC(=O)N1CCN(Cc2c(-c3ccc(Cl)cc3)nc3ccc(C4CC4)cn23)CC1` [Compound 195]: the “GLUT1 pIC50” value is on record as “++ (pIC50 5.00-5.99)”.
Consider `O=C(c1ccncc1)N1CCN(Cc2c(-c3ccc(Cl)cc3)nc3ccc(C4CC4)cn23)CC1` [Compound 196], for which the “GLUT1 pIC50” value is on record as “+++ (pIC50 ≧ 6.00)”.
Turning to `NC1CCN(Cc2c(-c3ccc(Cl)cc3)nc3ccc(-c4ccccc4)cn23)CC1` [Compound 197], the “GLUT1 pIC50” value is “+ (pIC50 4.00-4.99)”.
For `CN(C)C(=O)CNCc1c(-c2ccc(Cl)cc2)nc2ccc(-c3ccccc3)cn12` [Compound 198], the “GLUT1 pIC50” value is listed as “+ (pIC50 4.00-4.99)”.
In the case of `FC(F)(F)c1nnc2n1CCN(Cc1c(-c3ccc(Cl)cc3)nc3ccc(-c4ccccc4)cn13)C2` [Compound 199], the “GLUT1 pIC50” value is recorded as “++ (pIC50 5.00-5.99)”.
As for `O=C(C1CCOCC1)N1CCN(Cc2c(-c3ccc(Cl)cc3)nc3ccc(-c4ccccc4)cn23)CC1` [Compound 200], the entry is “+++ (pIC50 ≧ 6.00)”; as for `O=C(C1CCC1)N1CCN(Cc2c(-c3ccc(Cl)cc3)nc3ccc(-c4ccccc4Cl)cn23)CC1` [Compound 201], “+++ (pIC50 ≧ 6.00)”.
As to `O=C(C1CCC1)N1CCN(Cc2c(-c3ccc(Cl)cc3)nc3ccc(-c4ccccc4F)cn23)CC1` [Compound 202], the “GLUT1 pIC50” value is recorded as “+++ (pIC50 ≧ 6.00)”.
Turning to `Clc1ccc(-c2nc3ccc(Cc4ccccc4)cn3c2CN2CCOCC2)cc1` [Compound 203], the “GLUT1 pIC50” value is reported as “++ (pIC50 5.00-5.99)”.
Regarding `CC(=O)Nc1ccc2nc(-c3ccc(Cl)cc3)c(CN3CCOCC3)n2c1` [Compound 204], the “GLUT1 pIC50” value is “+− (pIC50 < 4.00)”.
`COc1cccc(-c2nc3ccc(Br)cn3c2CN2CCN(C(=O)C3CCC3)CC2)c1` [Compound 205]: the “GLUT1 pIC50” value was “++ (pIC50 5.00-5.99)”.
In the case of `Clc1ccc(-c2nc3ccc(-c4ccccc4)cn3c2CN2CCOCC2)cc1Cl` [Compound 206], the “GLUT1 pIC50” value is “++ (pIC50 5.00-5.99)”.
`COc1cccc(-c2nc3ccc(C4CC4)cn3c2CN2CCN(C(=O)C3CCC3)CC2)c1` [Compound 207]: the “GLUT1 pIC50” value is reported as “+++ (pIC50 ≧ 6.00)”.
Under `COc1cccc(-c2nc3ccccn3c2CN2CCN(C(=O)C3CCC3)CC2)c1` [Compound 208] stands “+− (pIC50 < 4.00)”.
Under `Cc1cn2c(CN3CCOCC3)c(-c3ccc(Cl)cc3)nc2cn1` [Compound 209] stands “+− (pIC50 < 4.00)”; under `CC(=O)NC1CCN(Cc2c(-c3ccc(Cl)cc3)nc3ccc(-c4ccccc4)cn23)CC1` [Compound 210], “++ (pIC50 5.00-5.99)”; under `CCOC(=O)CN1CCN(Cc2c(-c3ccc(Cl)cc3)nc3ccc(-c4ccccc4)cn23)CC1` [Compound 211], “+− (pIC50 < 4.00)”.
As for `O=C(c1ccnnc1)N1CCN(Cc2c(-c3ccc(Cl)cc3)nc3ccc(-c4ccccc4)cn23)CC1` [Compound 212], the “GLUT1 pIC50” value was “+++ (pIC50 ≧ 6.00)”.
As for `N#Cc1ccccc1-c1ccc2nc(-c3ccc(Cl)cc3)c(CN3CCN(C(=O)C4CCC4)CC3)n2c1` [Compound 213], the entry is “+++ (pIC50 ≧ 6.00)”.
As for `CS(=O)(=O)Nc1ccc2nc(-c3ccc(Cl)cc3)c(CN3CCOCC3)n2c1` [Compound 215], the entry is “++ (pIC50 5.00-5.99)”.

These data come from patent publication US20160120863A1, “SLC2A TRANSPORTER INHIBITORS” (IOMET PHARMA LTD., priority 2013, published 2016).
